In paper PMC11945486, “TAS1R2/TAS1R3 Single-Nucleotide Polymorphisms Affect Sweet Taste Receptor Activation by Sweeteners: The SWEET Project” (Nutrients, 2025):
Changes are numbered by the printed parent chain.

Columns and labels:
mTAS1R2-WT/mTAS1R3-I60T = molecular target: T1, mTAS1R2-WT/mTAS1R3-I60T (Mus musculus, UniProt Q925D8+Q925I4, I60T); assay: Calcium mobilisation assay, HEK293T-Gα16gust44 cells, mouse TAS1R3-I60T variant; type: cell-based; conditions: mTAS1R2-WT + mTAS1R3-I60T; "-": no activation
T1 construct: expressed in transfected cells; host or cells: HEK293T-Gα16gust44
T1 sequence (Q925I4 20-843): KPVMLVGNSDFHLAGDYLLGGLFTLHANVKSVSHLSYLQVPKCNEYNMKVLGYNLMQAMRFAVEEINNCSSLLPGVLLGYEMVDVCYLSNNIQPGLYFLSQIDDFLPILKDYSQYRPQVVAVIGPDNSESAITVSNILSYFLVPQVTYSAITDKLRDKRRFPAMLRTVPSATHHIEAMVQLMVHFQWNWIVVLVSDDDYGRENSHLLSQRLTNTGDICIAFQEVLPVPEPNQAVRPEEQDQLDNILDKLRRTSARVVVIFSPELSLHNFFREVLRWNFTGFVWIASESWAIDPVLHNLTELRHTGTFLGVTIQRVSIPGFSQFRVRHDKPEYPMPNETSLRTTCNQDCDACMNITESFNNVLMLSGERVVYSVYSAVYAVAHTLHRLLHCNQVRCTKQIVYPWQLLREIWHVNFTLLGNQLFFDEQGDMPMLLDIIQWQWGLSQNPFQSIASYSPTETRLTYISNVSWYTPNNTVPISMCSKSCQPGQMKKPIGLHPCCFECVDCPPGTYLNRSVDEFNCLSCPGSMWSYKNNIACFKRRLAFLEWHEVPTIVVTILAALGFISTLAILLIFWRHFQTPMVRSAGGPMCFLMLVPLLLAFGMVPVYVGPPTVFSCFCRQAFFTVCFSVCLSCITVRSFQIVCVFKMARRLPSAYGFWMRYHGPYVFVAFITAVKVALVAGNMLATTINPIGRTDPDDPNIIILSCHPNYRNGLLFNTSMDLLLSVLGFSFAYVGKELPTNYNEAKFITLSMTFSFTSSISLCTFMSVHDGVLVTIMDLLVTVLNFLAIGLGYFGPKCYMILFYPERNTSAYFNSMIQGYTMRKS
T1 sequence (Q925D8 21-858 I60T): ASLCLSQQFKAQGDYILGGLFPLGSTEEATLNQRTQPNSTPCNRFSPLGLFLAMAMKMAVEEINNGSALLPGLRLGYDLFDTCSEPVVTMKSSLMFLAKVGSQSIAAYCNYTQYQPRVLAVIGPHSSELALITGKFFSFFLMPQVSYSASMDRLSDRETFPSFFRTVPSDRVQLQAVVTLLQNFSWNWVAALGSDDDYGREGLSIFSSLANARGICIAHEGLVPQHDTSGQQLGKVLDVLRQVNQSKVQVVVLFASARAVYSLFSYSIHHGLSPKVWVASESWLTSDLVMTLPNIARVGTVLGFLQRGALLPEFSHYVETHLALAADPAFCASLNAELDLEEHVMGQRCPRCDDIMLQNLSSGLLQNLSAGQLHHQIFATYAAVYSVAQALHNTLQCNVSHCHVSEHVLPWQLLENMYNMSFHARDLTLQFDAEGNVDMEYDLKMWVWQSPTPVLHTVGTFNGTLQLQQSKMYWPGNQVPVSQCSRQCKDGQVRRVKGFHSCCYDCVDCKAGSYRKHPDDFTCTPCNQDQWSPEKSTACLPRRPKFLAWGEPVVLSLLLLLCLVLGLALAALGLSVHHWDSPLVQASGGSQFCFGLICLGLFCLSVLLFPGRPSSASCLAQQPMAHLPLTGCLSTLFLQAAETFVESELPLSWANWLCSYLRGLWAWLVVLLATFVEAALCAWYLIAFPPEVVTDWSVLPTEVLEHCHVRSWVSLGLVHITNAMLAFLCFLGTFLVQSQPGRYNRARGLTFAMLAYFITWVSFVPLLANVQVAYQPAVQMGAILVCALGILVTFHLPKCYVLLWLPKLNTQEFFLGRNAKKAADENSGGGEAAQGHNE
Description: (§1) The HEK293T cells were kindly provided by Jay P. Slack (Givaudan Flavors Corporation; Cincinnati, OH, USA). HEK293T cells stably transfected with Gα16gust44 [43, 67] were seeded in poly-D-lysine-coated clear-bottom black 96-well plates (0.35 × 10^5 cells/well) in high-glucose DMEM supplemented with 2 mM GlutaMAX, 10% dialysed foetal bovine serum with penicillin/streptomycin and G418 (400 μg/mL) at 37 °C and 6.3% CO2 in a humidified atmosphere as previously reported. […] As a negative control, HEK293T cells were mock-transfected with the empty expression vector. After a further 24 h of incubation, the HEK293T cells were washed with C1 buffer (130 mM NaCl, 5 mM KCl, 10 mM HEPES pH 7.4 and 2 mM CaCl2). The 96-well plates containing the cells were then stimulated with sweet-tasting compounds. […] Different concentration ranges were tested depending on the sweet compound injected. The Ca^2+ changes were expressed as fractional changes in fluorescent light intensity: ΔF/F = (F − F0)/F0, where F was the fluorescent light intensity at each point, and F0 was the value of emitted fluorescent light prior to stimulus application. To calculate dose–response relationships, the changes in fluorescence upon stimulus application were averaged, mock-subtracted and baseline-corrected. The dose–response data obtained were adjusted using a 4-parameter logistic equation. The half-maximal effective concentrations (EC50 values) and maximal signal amplitudes were calculated using SigmaPlot software (version 15.0) (Systat Software; San Jose, CA, USA).
(§2) HEK293T-Gα16gust44 cells were transiently cotransfected with pcDNA6-MAX-mTAS1R2-FLAG, pcDNA4-MAX-mTAS1R3-WT-FLAG or pcDNA4-MAX-mTAS1R3-I60T-FLAG, and pCMV-GCaMP5G as previously described in detail. After 24 h, the cells were washed with C1 buffer and stimulated with a logarithmically increasing range of sweetener concentrations. Calcium responses during automated application were monitored using a FlexStation®3 Multi-Mode microplate reader. The dose–response curves, EC50 values and maximal signal amplitudes were calculated as previously described.
(§3) For in vitro calcium mobilisation assay performed on hTAS1R2-SNPs, hTAS1R3-SNPs and mTAS1R3-I60T, 6 to 7 concentrations were tested for each sweet compound, plus buffer alone. All concentration–receptor combinations were measured in duplicate, and each experiment was repeated at least 4 times (8 wells/concentration). Results were expressed for each concentration as ΔF/F mean ± SEM and represented as dose–response curves.

mTAS1R2-WT/mTAS1R3-WT = molecular target: T2, mTAS1R2-WT/mTAS1R3-WT (Mus musculus, UniProt Q925D8+Q925I4); assay: Calcium mobilisation assay, HEK293T-Gα16gust44 cells, mouse sweet taste receptor WT; type: cell-based; conditions: mTAS1R2-WT + mTAS1R3-WT; "-": no activation
T2 construct: expressed in transfected cells; host or cells: HEK293T-Gα16gust44
T2 sequence (Q925I4 20-843): T1 sequence (Q925I4 20-843)
T2 sequence (Q925D8 21-858): T1 sequence (Q925D8 21-858 I60T) with T40I
Description: as §1, §2, §3

O=C1NS(=O)(=O)c2ccccc21 [Saccharin, saccharin] showed an EC50 (mTAS1R2-WT/mTAS1R3-I60T) of 2540 ± 61 µM and an EC50 (mTAS1R2-WT/mTAS1R3-WT) of 1520 ± 17 µM.
